Assay results reported in the supplement of paper PMC10307832.

Columns and labels:
Assay in all cases: relative viability (nuclei count vs DMSO), 5 days (fraction); higher = more cells survive
QS11 + Phenformin = compound: C1CC2=C(C1)C=C(C=C2)OC3=NC(=C4C(=N3)N(C=N4)CC5=CC=C(C=C5)C6=CC=CC=C6)N[C@@H](CC7=CC=CC=C7)CO [QS11] + N=C(N)NC(=N)NCCc1ccccc1 [Phenformin] (partner 250 µM)
How it was run: (§1)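 The day after seeding in 1536-well plates, lung cancer cell lines were treated by pin tool with a single drug, or with a fixed anchor-drug dose together with five library-drug doses (not always all listed) in √10 steps. After 5 days, a combined fix-and-stain solution (final 0.05% Triton X-100, 1% formaldehyde, 1 ug/ml Hoechst) was added. Nuclei counted on 4× images gave relative viability as treated counts over vehicle counts, reported as the median of duplicate plates.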

QS11 + Decitabine = compound: C1CC2=C(C1)C=C(C=C2)OC3=NC(=C4C(=N3)N(C=N4)CC5=CC=C(C=C5)C6=CC=CC=C6)N[C@@H](CC7=CC=CC=C7)CO [QS11] + Nc1ncn([C@H]2C[C@H](O)[C@@H](CO)O2)c(=O)n1 [Decitabine] (partner 2 µM)
How it was run: as §1

AZ628 + Alpelisib = compound: CC1=C(C=C(C=C1)NC(=O)C2=CC(=CC=C2)C(C)(C)C#N)NC3=CC4=C(C=C3)N=CN(C4=O)C [AZ628] + Cc1nc(NC(=O)N2CCC[C@H]2C(N)=O)sc1-c1ccnc(C(C)(C)C(F)(F)F)c1 [Alpelisib] (partner 2 µM)
How it was run: as §1

Darinaparsin + Lapatinib = compound: C[As](C)SC[C@H](NC(=O)CC[C@H](N)C(=O)O)C(=O)NCC(=O)O [Darinaparsin] + CS(=O)(=O)CCNCc1ccc(-c2ccc3ncnc(Nc4ccc(OCc5cccc(F)c5)c(Cl)c4)c3c2)o1 [Lapatinib] (partner 2 µM)
How it was run: as §1

Cell Line | relative viability (QS11 + Phenformin; first compound 0.08 µM) | relative viability (QS11 + Phenformin; first compound 0.253 µM) | relative viability (QS11 + Phenformin; first compound 0.8 µM) | relative viability (QS11 + Phenformin; first compound 2.53 µM) | relative viability (QS11 + Phenformin; first compound 8 µM) | relative viability (QS11 + Decitabine; first compound 0.08 µM) | relative viability (QS11 + Decitabine; first compound 0.253 µM) | relative viability (QS11 + Decitabine; first compound 0.8 µM) | relative viability (QS11 + Decitabine; first compound 2.53 µM) | relative viability (QS11 + Decitabine; first compound 8 µM) | relative viability (AZ628 + Alpelisib; first compound 0.08 µM) | relative viability (AZ628 + Alpelisib; first compound 0.253 µM) | relative viability (AZ628 + Alpelisib; first compound 0.8 µM) | relative viability (AZ628 + Alpelisib; first compound 2.53 µM) | relative viability (AZ628 + Alpelisib; first compound 8 µM) | relative viability (Darinaparsin + Lapatinib; first compound 0.08 µM) | relative viability (Darinaparsin + Lapatinib; first compound 0.8 µM) | relative viability (Darinaparsin + Lapatinib; first compound 2.53 µM) | relative viability (Darinaparsin + Lapatinib; first compound 8 µM)
NCI-H596 | 0.736 | 0.81 | 0.804 | 0.832 | 0.874 | 1.26 | 0.87 | 0.971 | 1.17 | 1.04 | 0.504 | 0.553 | 0.567 | 0.498 | 0.422 | 1.1 | 1.02 | 1.01 | 1.06
NCI-H2126 | 0.542 | 0.505 | 0.552 | 0.561 | 0.541 | 0.588 | 0.63 | 0.573 | 0.574 | 0.473 | 0.819 | 0.734 | 0.83 | 0.783 | 0.653 | 0.767 | 0.712 | 0.622 | 0.861
EMC-BAC-2 | 0.519 | 0.579 | 0.53 | 0.463 | 0.44 | 0.939 | 1.07 | 0.842 | 0.913 | 0.854 | 0.704 | 0.645 | 0.681 | 0.608 | 0.706 | 0.858 | 0.924 | 0.949 | 1.05
H3255 | 0.341 | 0.351 | – | 0.418 | 0.363 | 0.578 | 0.64 | – | 0.556 | 0.674 | 0.724 | 0.653 | 0.75 | 0.747 | 0.496 | 0.253 | 0.28 | 0.25 | 0.216
NCI-H838 | 0.629 | 0.468 | 0.519 | 0.517 | 0.531 | 0.494 | 0.483 | 0.43 | 0.422 | 0.411 | 1.03 | 0.991 | 0.953 | 0.92 | 0.841 | 1.23 | 0.835 | 0.831 | 1.32
NCI-H2009 | 0.466 | 0.498 | 0.459 | 0.419 | 0.416 | 0.362 | 0.426 | 0.364 | 0.409 | 0.371 | 1.01 | 0.895 | 0.692 | 1.03 | 0.34 | 0.992 | 0.93 | 0.888 | 0.915
HCC-15 | 0.541 | 0.519 | 0.445 | 0.44 | 0.5 | 0.697 | 0.737 | 0.573 | 0.586 | 0.525 | 0.967 | 0.742 | 0.707 | 0.699 | 0.392 | 1.04 | 0.76 | 0.81 | 1.11
NCI-H1395 | 0.397 | 0.437 | 0.425 | 0.457 | 0.453 | 0.699 | 0.791 | 0.71 | 0.789 | 0.801 | 1.19 | 1.2 | 1.03 | 0.991 | 0.915 | 1.3 | 0.949 | 1.03 | 1.37
COR-L 105 | 0.511 | 0.407 | 0.475 | 0.501 | 0.475 | 0.747 | 0.633 | 0.731 | 0.639 | 0.599 | 0.998 | 1.27 | 0.921 | 1.03 | 0.632 | 0.388 | 0.388 | – | 0.349
